Experimental data as given in PubChem BioAssay AID2060363 (Molecular Pharmacology Branch, DTP, NCI, 2025).

Test system: 156681-154-R-J1-PDC tumor spheroids, viability % test/control
Assay: Anticancer human tumor 156681-154-R-J1-PDC patient-derived melanoma cell line growth inhibition [TAK]
Settings: spheroids with HUVEC and MSC; for IC50: curve of first compound; for viability, T/C: stronger effect = lower value
Method in brief: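 Tumor cells were grown as spheroids with HUVEC and hMSC (60:25:15) and treated with targeted agents combined with TAK-243 or ipatasertib. Drugs were tested in half-log steps down from near the clinical Cmax, or from 10 microM where Cmax was unknown.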
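Further: spheroids exposed to compounds for 7 days before the endpoint.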

COc1c(OCCCN2CCOCC2)ccc2c3n(c(=NC(=O)c4cnc(N)nc4)nc12)CCN3 + CC(C)NCC(C(=O)N1CCN(c2ncnc3c2C(C)CC3O)CC1)c1ccc(Cl)cc1
IC50 (second compound 0.3 µM): 0.0658 µM | IC50 (second compound 0.949 µM): 0.0512 µM | IC50 (second compound 3 µM): 0.0168 µM | IC50 (second compound 9.49 µM): < 0.00316 µM | IC50 (second compound 30 µM): < 0.00316 µM | viability, T/C (second compound 0.3 µM, first compound 0.00316 µM): 94.6% | viability, T/C (second compound 0.3 µM, first compound 0.01 µM): 91.4% | viability, T/C (second compound 0.3 µM, first compound 0.0316 µM): 70.6% | viability, T/C (second compound 0.3 µM, first compound 0.1 µM): 38.3% | viability, T/C (second compound 0.3 µM, first compound 0.316 µM): 11.3% | viability, T/C (second compound 0.3 µM, first compound 1 µM): 2.36% | viability, T/C (second compound 0.949 µM, first compound 0.00316 µM): 86.7% | viability, T/C (second compound 0.949 µM, first compound 0.01 µM): 85.1% | viability, T/C (second compound 0.949 µM, first compound 0.0316 µM): 61% | viability, T/C (second compound 0.949 µM, first compound 0.1 µM): 33.3% | viability, T/C (second compound 0.949 µM, first compound 0.316 µM): 6.84% | viability, T/C (second compound 0.949 µM, first compound 1 µM): 1.52% | viability, T/C (second compound 3 µM, first compound 0.00316 µM): 67.4% | viability, T/C (second compound 3 µM, first compound 0.01 µM): 56.6% | viability, T/C (second compound 3 µM, first compound 0.0316 µM): 40.7% | viability, T/C (second compound 3 µM, first compound 0.1 µM): 21.7% | viability, T/C (second compound 3 µM, first compound 0.316 µM): 3.81% | viability, T/C (second compound 3 µM, first compound 1 µM): 1.29% | viability, T/C (second compound 9.49 µM, first compound 0.00316 µM): 30.9% | viability, T/C (second compound 9.49 µM, first compound 0.01 µM): 35.9% | viability, T/C (second compound 9.49 µM, first compound 0.0316 µM): 18.5% | viability, T/C (second compound 9.49 µM, first compound 0.1 µM): 9.13% | viability, T/C (second compound 9.49 µM, first compound 0.316 µM): 2.36% | viability, T/C (second compound 9.49 µM, first compound 1 µM): 1.24% | viability, T/C (second compound 30 µM, first compound 0.00316 µM): 13.6% | viability, T/C (second compound 30 µM, first compound 0.01 µM): 11.5% | viability, T/C (second compound 30 µM, first compound 0.0316 µM): 6.36% | viability, T/C (second compound 30 µM, first compound 0.1 µM): 3.28% | viability, T/C (second compound 30 µM, first compound 0.316 µM): 0.7% | viability, T/C (second compound 30 µM, first compound 1 µM): 0.29%
